# Experimental data from patent publication US10358463B2, “Immunomodulators” (BRISTOL-MYERS SQUIBB COMPANY, priority 2016, dated 2019).
# Numbered stars: 1 amine (or outer) side, 2 acyl side, 3 side chain; on linkers, the order of the positions; unused ones are H or OH. Bridge positions count the residues as written; N and C are the ends. Square brackets hold non-standard residues; d marks the D form. Peptide text beside a SMILES is read from it. Trp(1-CH2CONHSO2Me) = CS(=O)(=O)NC(=O)Cn1cc(C[C@H](N)C(=O)O)c2ccccc21; Trp(4-aza,1-CH2COOH) = N[C@@H](Cc1cn(CC(=O)O)c2cccnc12)C(=O)O; Trp(7-aza,1-CH2COOH) = N[C@@H](Cc1cn(CC(=O)O)c2ncccc12)C(=O)O; X1 = O=C(O)Cn1c(C(=O)O)c(C[C@H](N[*:1])C(=O)[*:2])c2ccccc21; X10 = COc1ccc2c(c1)c(C[C@H](N[*:1])C(=O)[*:2])cn2CC(=O)O; X18 = O=C(O)Cn1c(=O)n(C[C@H](N[*:1])C(=O)[*:2])c2ccccc21; X11 = O=C(O)Cc1nc(C[C@H](N[*:1])C(=O)[*:2])c2n1CCCC2; X12 = O=C(O)Cc1nn(C[C@H](N[*:1])C(=O)[*:2])c2ccccc12; Phe(4-F) = N[C@@H](Cc1ccc(F)cc1)C(=O)O; Hyp = O=C(O)[C@@H]1C[C@@H](O)CN1; NMeNle = CCCC[C@H](NC)C(=O)O; Pen = CC(C)(S)[C@H](N)C(=O)O; Pip = O=C(O)[C@@H]1CCCCN1; NMeA = CN[C@@H](C)C(=O)O; Dab = NCC[C@H](N)C(=O)O; Dap = NC[C@H](N)C(=O)O; Sar = CNCC(=O)O
# Molecular target: T1, PD-1-Ig binding to PD-L1-TVMV-His (PD-L1-His) (Homo sapiens, UniProt Q9NZQ7)
# T1 construct: hPDL1 (19-239)-TVMV-His; TVMV protease cleavage site (C); made in house; host or cells: HEK293T cells
# Assay: PD-1/PD-L1 Homogenous Time-Resolved Fluorescence (HTRF) binding assay
# Conditions: PD-1-Ig (20 nM)/PD-L1-His (10 nM); numeric value
# From the text: The ability of the macrocyclic peptides of the present disclosure to bind to PD-L1 was investigated using a PD-1/PD-L1 Homogenous Time-Resolved Fluorescence (HTRF) binding assay.
# Homogenous Time-Resolved Fluorescence (HTRF) Assays of Binding of Soluble PD-1 to Soluble PD-L1. Soluble PD-1 and soluble PD-L1 refers to proteins with carboxyl-end truncations that remove the transmembrane-spanning regions and are fused to heterologous sequences, specifically the Fc portion of the human immunoglobuling G sequence (Ig) or the hexahistidine epitope tag (His). All binding studies were performed in an HTRF assay buffer consisting of dPBS supplemented with 0.1% (w/v) bovine serum albumin and 0.05% (v/v) Tween-20. For the PD-1-Ig/PD-L1-His binding assay, inhibitors were pre-incubated with PD-L1-His (10 nM final) for 15 m in 4 μl of assay buffer, followed by addition of PD-1-Ig (20 nM final) in 1 μl of assay buffer and further incubation for 15 m. PD-L1 fusion proteins from either human, cynomologous macaques, mouse, or other species were used. HTRF detection was achieved using europium crypate-labeled anti-Ig monoclonal antibody (1 nM final) and allophycocyanin (APC) labeled anti-His monoclonal antibody (20 nM final). Antibodies were diluted in HTRF detection buffer and 5 μl was dispensed on top of binding reaction. The reaction was allowed to equilibrate for 30 minutes and signal (665 nm/620 nm ratio) was obtained using an EnVision fluorometer. Additional binding assays were established between PD-1-Ig/PD-L2-His (20 and 5 nM, respectively), CD80-His/PD-L1-Ig (100 and 10 nM, respectively) and CD80-His/CTLA4-Ig (10 and 5 nM, respectively). Binding/competition studies between biotinylated Compound No. 71 and human PD-L1-His were performed as follows. Macrocyclic peptide inhibitors were pre-incubated with PD-L1-His (10 nM final) for 60 minutes in 4 μl of assay buffer followed by addition of biotinylated Compound No. 71 (0.5 nM final) in 1 μl of assay buffer. Binding was allowed to equilibrate for 30 minutes followed by addition of europium crylated labeled Streptavidin (2.5 pM final) and APC-labeled anti-His (20 nM final) in 5 μl of HTRF buffer. The reaction was allowed to equilibrate for 30 m and signal (665 nm/620 nm ratio) was obtained using an EnVision fluorometer.
# Recombinant Proteins. Carboxyl-truncated human PD-1 (amino acids 25-167) with a C-terminal human Ig epitope tag [hPD-1 (25-167)-3S-IG] and human PD-L1 (amino acids 18-239) with a C-terminal His epitope tag [hPD-L1(19-239)-tobacco vein mottling virus protease cleavage site (TVMV)-His] were expressed in HEK293T cells and purified sequentially by recombinant Protein A affinity chromatography and size exclusion chromatography. Human PD-L2-His (Sino Biologicals), CD80-His (Sino Biologicals), CTLA4-Ig (RnD Systems) were all obtained through commercial sources.
# T1 sequence (Q9NZQ7 with tags, fused parts or gaps): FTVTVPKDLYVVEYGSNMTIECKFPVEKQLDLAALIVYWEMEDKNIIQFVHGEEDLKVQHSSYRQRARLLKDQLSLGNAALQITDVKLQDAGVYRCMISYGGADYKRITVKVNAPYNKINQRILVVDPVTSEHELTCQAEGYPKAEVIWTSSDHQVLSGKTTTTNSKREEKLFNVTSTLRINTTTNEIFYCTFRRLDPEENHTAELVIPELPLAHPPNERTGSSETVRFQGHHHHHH
row,IC50,Compound
1,13 nM,"CCCC[C@H]1C(=O)N(C)[C@@H](CCCC)C(=O)N[C@@H](CC(C)C)C(=O)N[C@H](C(N)=O)CSCC(=O)N[C@@H](Cc2ccc(O)cc2)C(=O)N(C)[C@@H](C)C(=O)N[C@@H](CC(N)=O)C(=O)N2CCC[C@H]2C(=O)N[C@@H](CN)C(=O)N[C@@H](CC(C)C)C(=O)N2C[C@H](O)C[C@H]2C(=O)N[C@@H](Cc2c[nH]c3ccccc23)C(=O)N[C@@H](CCN)C(=O)N[C@@H](Cc2cn(CC(=O)O)c3cccnc23)C(=O)N1C [Example 10502] ({CH2CO}-Y[NMeA]NP[Dap]L[Hyp]W[Dab][Trp(4-aza,1-CH2COOH)][NMeNle][NMeNle]LC-NH2; thioether N-14)"
2,4 nM,CCCC[C@H]1C(=O)N(C)[C@@H](CCCC)C(=O)N[C@@H](CC(C)C)C(=O)N[C@H](C(=O)NCC(N)=O)CSCC(=O)N[C@@H](Cc2ccc(O)cc2)C(=O)N(C)[C@@H](C)C(=O)N[C@@H](CC(N)=O)C(=O)N2CCC[C@H]2C(=O)N[C@@H](CN)C(=O)N[C@@H](CC(C)C)C(=O)N2C[C@H](O)C[C@H]2C(=O)N[C@@H](Cc2c[nH]c3ccccc23)C(=O)N[C@@H](CCN)C(=O)N[C@@H](Cc2cn(CC(=O)NS(C)(=O)=O)c3ccccc23)C(=O)N1C [Example 1001] ({CH2CO}-Y[NMeA]NP[Dap]L[Hyp]W[Dab][Trp(1-CH2CONHSO2Me)][NMeNle][NMeNle]LCG-NH2; thioether N-14)

# Same assay, conditions: PD-1-Ig (20 nM)/PD-L1-His (10 nM); range class
row,Compound,IC50
1,CCCC[C@H]1C(=O)N(C)[C@@H](CCCC)C(=O)N[C@@H](CC(C)C)C(=O)N[C@H](C(=O)NCC(N)=O)CSCC(=O)N[C@@H](Cc2ccc(O)cc2)C(=O)N(C)[C@@H](C)C(=O)N[C@@H](CC(N)=O)C(=O)N2CCC[C@H]2C(=O)N[C@@H](CN)C(=O)N[C@@H](CC(C)C)C(=O)N2C[C@H](O)C[C@H]2C(=O)N[C@@H](Cc2c[nH]c3ccccc23)C(=O)N[C@@H](CCN)C(=O)N[C@@H](Cc2nc(CC(=O)O)n3c2CCCC3)C(=O)N1C [Example 1009] ({CH2CO}-Y[NMeA]NP[Dap]L[Hyp]W[Dab][X11][NMeNle][NMeNle]LCG-NH2; thioether N-14),10 to 99 nM
2,CCCC[C@H]1C(=O)N(C)[C@@H](CCCC)C(=O)N[C@@H](CC(C)C)C(=O)N[C@H](C(N)=O)C(C)(C)SCC(=O)N[C@@H](Cc2ccc(OC)cc2)C(=O)N2CCCC[C@H]2C(=O)N[C@@H](CC(=O)O)C(=O)N2CCC[C@H]2C(=O)N[C@@H](Cc2cnc[nH]2)C(=O)N[C@@H](CCC(=O)O)C(=O)N2C[C@H](O)C[C@H]2C(=O)N[C@@H](Cc2c[nH]c3ccccc23)C(=O)N[C@@H](CCN)C(=O)N[C@@H](Cc2cn(CC(=O)NS(C)(=O)=O)c3ccccc23)C(=O)N1C [Example 1007] ({CH2CO}-Y(Me)[Pip]DPHE[Hyp]W[Dab][Trp(1-CH2CONHSO2Me)][NMeNle][NMeNle]L[Pen]-NH2; thioether N-14),1 to 9.9 nM
3,CCCC[C@H]1C(=O)N(C)[C@@H](CCCC)C(=O)N[C@@H](CC(C)C)C(=O)N[C@H](C(N)=O)C(C)(C)SCC(=O)N[C@@H](Cc2ccc(F)cc2)C(=O)N2CCCC[C@H]2C(=O)N[C@@H](CC(=O)O)C(=O)N2CCC[C@H]2C(=O)N[C@@H](CN)C(=O)N[C@@H](CCC(=O)O)C(=O)N2C[C@H](O)C[C@H]2C(=O)N[C@@H](Cc2c[nH]c3ccccc23)C(=O)N[C@@H](CCN)C(=O)N[C@@H](Cc2cn(CC(=O)NS(C)(=O)=O)c3ccccc23)C(=O)N1C [Example 1003] ({CH2CO}-[Phe(4-F)][Pip]DP[Dap]E[Hyp]W[Dab][Trp(1-CH2CONHSO2Me)][NMeNle][NMeNle]L[Pen]-NH2; thioether N-14),1 to 9.9 nM
4,CCCC[C@H]1C(=O)N(C)[C@@H](CCCC)C(=O)N[C@@H](CC(C)C)C(=O)N[C@H](C(=O)NCC(N)=O)CSCC(=O)N[C@@H](Cc2ccc(O)cc2)C(=O)N(C)[C@@H](C)C(=O)N[C@@H](CC(=O)O)C(=O)N2CCC[C@H]2C(=O)N[C@@H](Cc2cnc[nH]2)C(=O)N[C@@H](CCCCN)C(=O)N2C[C@H](O)C[C@H]2C(=O)N[C@@H](Cc2c[nH]c3ccccc23)C(=O)N[C@@H](CCCCN)C(=O)N[C@@H](Cc2cn(Cc3nnn[nH]3)c3ccccc23)C(=O)N1C [Example 1002],1 to 9.9 nM

# Now from value to compound:
row,IC50,Compound
1,1 to 9.9 nM,"CCCC[C@H]1C(=O)N(C)[C@@H](CCCC)C(=O)N[C@@H](CC(C)C)C(=O)N[C@H](C(N)=O)CSCC(=O)N[C@@H](Cc2ccc(O)cc2)C(=O)N(C)[C@@H](C)C(=O)N[C@@H](CC(N)=O)C(=O)N2CCC[C@H]2C(=O)N[C@@H](CN)C(=O)N[C@@H](CC(C)C)C(=O)N2C[C@H](O)C[C@H]2C(=O)N[C@@H](Cc2c[nH]c3ccccc23)C(=O)N[C@@H](CCN)C(=O)N[C@@H](Cc2cn(CC(=O)O)c3ncccc23)C(=O)N1C [Example 10504] ({CH2CO}-Y[NMeA]NP[Dap]L[Hyp]W[Dab][Trp(7-aza,1-CH2COOH)][NMeNle][NMeNle]LC-NH2; thioether N-14)"
2,1 to 9.9 nM,CCCC[C@H]1C(=O)N(C)[C@@H](CCCC)C(=O)N[C@@H](CC(C)C)C(=O)N[C@H](C(N)=O)C(C)(C)SCC(=O)N[C@@H](Cc2ccc(O)cc2)C(=O)N2CCCC[C@H]2C(=O)N[C@@H](CC(=O)O)C(=O)N2CCC[C@H]2C(=O)N[C@@H](CN)C(=O)N[C@@H](CCC(=O)O)C(=O)N2C[C@H](O)C[C@H]2C(=O)N[C@@H](Cc2c[nH]c3ccccc23)C(=O)N[C@@H](CCN)C(=O)N[C@@H](Cc2cn(CC(=O)NS(C)(=O)=O)c3ccccc23)C(=O)N1C [Example 1011] ({CH2CO}-Y[Pip]DP[Dap]E[Hyp]W[Dab][Trp(1-CH2CONHSO2Me)][NMeNle][NMeNle]L[Pen]-NH2; thioether N-14)
3,1 to 9.9 nM,CCCC[C@H]1C(=O)N(C)[C@@H](CCCC)C(=O)N[C@@H](CC(C)C)C(=O)N[C@H](C(=O)NCC(N)=O)CSCC(=O)N[C@@H](Cc2ccc(O)cc2)C(=O)N(C)[C@@H](C)C(=O)N[C@@H](CC(N)=O)C(=O)N2CCC[C@H]2C(=O)N[C@@H](CN)C(=O)N[C@@H](CC(C)C)C(=O)N2C[C@H](O)C[C@H]2C(=O)N[C@@H](Cc2c[nH]c3ccccc23)C(=O)N[C@@H](CCN)C(=O)N[C@@H](Cc2cn(CC(=O)O)c3ccc(OC)cc23)C(=O)N1C [Example 10506] ({CH2CO}-Y[NMeA]NP[Dap]L[Hyp]W[Dab][X10][NMeNle][NMeNle]LCG-NH2; thioether N-14)
4,10 to 99 nM,CCCC[C@H]1C(=O)N(C)[C@@H](CCCC)C(=O)N[C@@H](CC(C)C)C(=O)N[C@H](C(N)=O)CSCC(=O)N[C@@H](Cc2ccc(O)cc2)C(=O)N(C)[C@@H](C)C(=O)N[C@@H](CC(N)=O)C(=O)N(C)CC(=O)N[C@@H](CN)C(=O)N[C@@H](CC(C)C)C(=O)N2C[C@H](O)C[C@H]2C(=O)N[C@@H](Cc2c[nH]c3ccccc23)C(=O)N[C@@H](CCN)C(=O)N[C@@H](Cc2c(C(=O)O)n(CC(=O)O)c3ccccc23)C(=O)N1C [Example 1018] ({CH2CO}-Y[NMeA]N[Sar][Dap]L[Hyp]W[Dab][X1][NMeNle][NMeNle]LC-NH2; thioether N-14)
5,1 to 9.9 nM,CCCC[C@H]1C(=O)N(C)[C@@H](CCCC)C(=O)N[C@@H](CC(C)C)C(=O)N[C@H](C(=O)NCC(N)=O)CSCC(=O)N[C@@H](Cc2ccc(O)cc2)C(=O)N(C)[C@@H](C)C(=O)N[C@@H](CC(N)=O)C(=O)N2CCC[C@H]2C(=O)N[C@@H](CN)C(=O)N[C@@H](CC(C)C)C(=O)N2C[C@H](O)C[C@H]2C(=O)N[C@@H](Cc2c[nH]c3ccccc23)C(=O)N[C@@H](CCN)C(=O)N[C@@H](Cn2c(=O)n(CC(=O)O)c3ccccc32)C(=O)N1C [Example 1015] ({CH2CO}-Y[NMeA]NP[Dap]L[Hyp]W[Dab][X18][NMeNle][NMeNle]LCG-NH2; thioether N-14)
6,10 to 99 nM,CCCC[C@H]1C(=O)N(C)[C@@H](CCCC)C(=O)N[C@@H](CC(C)C)C(=O)N[C@H](C(=O)NCC(N)=O)CSCC(=O)N[C@@H](Cc2ccc(O)cc2)C(=O)N(C)[C@@H](C)C(=O)N[C@@H](CC(N)=O)C(=O)N2CCC[C@H]2C(=O)N[C@@H](CN)C(=O)N[C@@H](CC(C)C)C(=O)N2C[C@H](O)C[C@H]2C(=O)N[C@@H](Cc2c[nH]c3ccccc23)C(=O)N[C@@H](CCN)C(=O)N[C@@H](Cn2nc(CC(=O)O)c3ccccc32)C(=O)N1C [Example 1012] ({CH2CO}-Y[NMeA]NP[Dap]L[Hyp]W[Dab][X12][NMeNle][NMeNle]LCG-NH2; thioether N-14)
